In brackets after ≈: the same amount, converted by molar mass.
Assays:
[1] = system: subscapular incision wound; experiment: in vivo application of compositions to subscapular incisions in a rat model (Example 13); set-up: species or system Sprague-Dawley rats
From the text: 12 Sprague-Dawley rats were placed randomly into 6 different groups, Study Groups 1-6, resulting in 2 animals per study group. Animals were anesthetized and the dorsal subscapular areas were shaved of hair with electric trimmers. Demarcations were made in a gently widening parallel approximately 1 cm subscapular and 2.2 cm in length. The left subscapular incision served as a control and the right subscapular incision served as the treatment site. The subscapular areas were incised with a #15 blade though the skin and subcutaneous panniculus carnosus muscle. The composition mixture corresponding to each group was then instilled into the right subscapular wound and the incision closed with 5-0 nylon interrupted fashion. Additional mixture was applied to the surface of the treatment site incision. Three biopsies were taken of normal skin at the time of incision and prior to any mixture instillation. Each site was then monitored and photographed daily. Wound gross morphology was noted daily. Sutures were removed and biopsies were taken at day 8 of the study (postoperative day #7) and sent to pathology for histology review. Histology was reviewed independently by two dermatopathologists.
A siRNA (MCP-1 inhibitor)

physchem = experiment: physchem
Experimental: Two 4 mg samples of each compound were weighed.
The first sample was used to determine solubility. The sample was mixed with 1 mL of pH 7.4 phosphate buffered saline (PBS) buffer solution to produce a 4 mg/mL solution. The solution was vortexed and filtered to remove undissolved particles. The filtered solution was then diluted in pH 7.4 buffer in triplicate and stored in a refrigerator to reduce hydrolysis. The solutions were allowed to sit at room temperature for 5 minutes and then were analyzed by HPLC.
The second sample was used to prepare a calibration curve in ethanol. Calibrators were made based on expected solubility. After visually inspecting solubility in the buffer, the calibration curve was determined in order to include points above and below the expected concentration. The calibrators were stored in a refrigerator until ready for analysis by HPLC.

[2] = pH 7.4
wound = details: applied before wound formation or up to 24 hours after; cited from earlier work

evidence of trichogranuloma in histology specimens ([1]; histology) | Solubility (physchem; pH 7.4) | hydrolysis [2] | Solubility (physchem; pH 7.4, aqueous buffer, thermodynamic from solid) | Compound | differences in histology between control and treatment site ([1]; 100 μM and 400 μM (either dosage), Groups 2 and 3) | difference in treatment, alone, as compared to natural resveratrol alone ([1]; Groups 2 and 3) | scar (wound) | time to re-epithelialization (wound)
mild | 2060 µg/mL (≈ 3610 µM) | slightly hydrolyzed |  | O=C(O)CCCC(=O)Oc1ccc(C=Cc2cc(OC(=O)CCCC(=O)O)cc(OC(=O)CCCC(=O)O)c2)cc1 [Resveratrol trihemiglutarate, resveratrol trihemiglutarate] | no differences | no appreciable difference |  | 
 | 291 µg/mL (≈ 551 µM) | quick hydrolysis |  | O=C(O)CCC(=O)Oc1ccc(C=Cc2cc(OC(=O)CCC(=O)O)cc(OC(=O)CCC(=O)O)c2)cc1 [Resveratrol trihemisuccinate, resveratrol trihemisuccinate] |  |  |  | 
 |  |  | 4.8 µg/mL (≈ 21 µM) | Oc1ccc(/C=C/c2cc(O)cc(O)c2)cc1 [Resveratrol, trans-3,4′,5-trihydroxystilbene] |  |  | attenuated scar | up to 24 hours
